# Experimental data from patent US7521396B2, “Substituted (thioxo)carbonylaminophenyluracils” (Bayer CropScience AG, priority 2002, dated 2009).
# Where two headings read alike, the source gives them in different places. Marks after values point to notes of the source that are not given here.
# Legend:
# [1] = logP by HPLC on reversed-phase column (C 18), EEC Directive 79/831 Annex V.A8; assay type: physicochemical
# weeds [2] = assay: Pre-emergence test (Example A), damage to weeds; assay type: in vivo; details: soil sprayed 24 hours after sowing, rated after three weeks
# Procedure: (§1) To produce a suitable preparation of active compound, 1 part by weight of active compound is mixed with the stated amount of solvent, the stated amount of emulsifier is added and the concentrate is diluted with water to the desired concentration.
# Seeds of the test plants are sown in normal soil. After 24 hours, the soil is sprayed with the preparation of active compound such that the particular amount of active compound desired is applied per unit area. The concentration of active compound in the spray liquor is chosen such that the particular amount of active compound desired is applied in 1000 liters of water per hectare.
# After three weeks, the degree of damage to the plants is rated in % damage in comparison to the development of the untreated control. The figures denote: • 0%=no effect (like untreated control) • 100%=total destruction
# weeds [3] = assay: Post-emergence test (Example B), damage to weeds; assay type: in vivo; details: test plants of 5-15 cm sprayed, rated after three weeks
# Procedure: as §1
# Test plants of a height of 5-15 cm are sprayed with the preparation of active compound such that the particular amounts of active compound desired are applied per unit area. The concentration of the spray liquor is chosen such that the particular amounts of active compound desired are applied in 1000 l of water/ha.
# After three weeks, the degree of damage to the plants is rated in % damage in comparison to the development of the untreated control.
# The figures denote: • 0%=no effect (like untreated control) • 100%=total destruction
smiles,measurement,setting,value
CN(Cc1ccco1)C(=O)Nc1cc(-n2c(=O)cc(C(F)(F)F)n(C)c2=O)c(F)cc1Br [Example 37],logP,[1],logP = 2.95^a)
same,activity against weeds (degree of damage),weeds [2],strong activity
same,activity against weeds (degree of damage),weeds [3],strong activity
Cn1ccsc1=NC(=O)Nc1cc(-n2c(=O)cc(C(F)(F)F)n(C)c2=O)c(F)cc1Cl [Example 32],logP,[1],logP = 2.51^a)
same,activity against weeds (degree of damage),weeds [2],strong activity
same,activity against weeds (degree of damage),weeds [3],strong activity
C=CCONC(=O)Nc1cc(-n2c(=O)cc(C(F)(F)F)n(C)c2=O)c(F)cc1Cl [Example 22],logP,[1],logP = 2.60^a)
same,activity against weeds (degree of damage),weeds [2],strong activity
CCN1CCN(C(=O)Nc2cc(-n3c(=O)cc(C(F)(F)F)n(C)c3=O)c(F)cc2Br)C1=O [Example 6],logP,[1],logP = 2.85^a)
same,activity against weeds (degree of damage),weeds [2],strong activity
same,activity against weeds (degree of damage),weeds [3],strong activity
Cn1c(C(F)(F)F)cc(=O)n(-c2cc(NC(=O)N3CCOC3=O)c(Br)cc2F)c1=O [Example 30],logP,[1],logP = 2.59^a)
same,activity against weeds (degree of damage),weeds [2],strong activity
same,activity against weeds (degree of damage),weeds [3],strong activity
Cn1c(C(F)(F)F)cc(=O)n(-c2cc(NC(=O)N3CCOCC3)c(Cl)cc2F)c1=O [Example 49],logP,[1],logP = 2.11^a)
same,activity against weeds (degree of damage),weeds [2],strong activity
CON(C)C(=O)Nc1cc(-n2c(=O)cc(C(F)(F)F)n(C)c2=O)c(F)cc1Cl [Example 21],logP,[1],logP = 2.60^a)
same,activity against weeds (degree of damage),weeds [2],strong activity
same,activity against weeds (degree of damage),weeds [3],strong activity
CCCN(C(=O)Nc1cc(-n2c(=O)cc(C(F)(F)F)n(C)c2=O)c(F)cc1Br)C(C)C [Example 38],logP,[1],logP = 2.79^a)
same,activity against weeds (degree of damage),weeds [2],strong activity
same,activity against weeds (degree of damage),weeds [3],strong activity
Cn1c(C(F)(F)F)cc(=O)n(-c2cc(NC(=O)NCCC#N)c(Br)cc2F)c1=O [Example 20],logP,"[1]; a) acidic range: 0.1% aqueous phosphoric acid, acetonitrile gradient, 43° C.",logP = 2.08^a)
same,activity against weeds (degree of damage),weeds [2],strong activity
Cn1c(C(F)(F)F)cc(=O)n(-c2cc(NC(=O)NC3=NCCS3)c(Br)cc2F)c1=O [Example 39],logP,[1],logP = 2.16^a)
same,activity against weeds (degree of damage),weeds [2],strong activity
same,activity against weeds (degree of damage),weeds [3],strong activity
Cn1c(C(F)(F)F)cc(=O)n(-c2cc(NC(=O)N3CCCO3)c(Br)cc2F)c1=O [Example 28],logP,[1],logP = 2.63^a)
same,activity against weeds (degree of damage),weeds [2],strong activity
same,activity against weeds (degree of damage),weeds [3],strong activity
CON(C)C(=O)Nc1cc(-n2c(=O)cc(C(F)(F)F)n(C)c2=O)c(F)cc1Br [Example 8],logP,[1],logP = 2.67^a)
same,activity against weeds (degree of damage),weeds [2],strong activity
same,activity against weeds (degree of damage),weeds [3],strong activity
Cn1ccsc1=NC(=O)Nc1cc(-n2c(=O)cc(C(F)(F)F)n(C)c2=O)c(F)cc1Br [Example 31],logP,[1],logP = 2.59^a)
same,activity against weeds (degree of damage),weeds [2],strong activity
same,activity against weeds (degree of damage),weeds [3],strong activity
CN1CCN(C(=O)Nc2cc(-n3c(=O)cc(C(F)(F)F)n(C)c3=O)c(F)cc2Br)C1=O [Example 5],logP,[1],logP = 2.55^a)
same,activity against weeds (degree of damage),weeds [2],strong activity
same,activity against weeds (degree of damage),weeds [3],strong activity
Cn1c(C(F)(F)F)cc(=O)n(-c2cc(NC(=O)NC3=NCCS3)c(Cl)cc2F)c1=O [Example 48],logP,[1],logP = 2.11^a)
same,activity against weeds (degree of damage),weeds [2],strong activity
same,activity against weeds (degree of damage),weeds [3],strong activity
CCOC(=O)C(C)OC(=O)Nc1cc(-n2c(=O)cc(C(F)(F)F)n(C)c2=O)c(F)cc1Br (stereo not drawn) [Example 10],logP,[1],logP = 3.06^a)
same,activity against weeds (degree of damage),weeds [2],strong activity
same,activity against weeds (degree of damage),weeds [3],strong activity
CCCN(C(=O)Nc1cc(-n2c(=O)cc(C(F)(F)F)n(C)c2=O)c(F)cc1Cl)C(C)C [Example 45],logP,[1],logP = 2.58^a)
same,activity against weeds (degree of damage),weeds [2],strong activity
same,activity against weeds (degree of damage),weeds [3],strong activity
Cn1c(C(F)(F)F)cc(=O)n(-c2cc(NC(=O)N3CCCO3)c(Cl)cc2F)c1=O [Example 24],logP,[1],logP = 2.58^a)
same,activity against weeds (degree of damage),weeds [2],strong activity
same,activity against weeds (degree of damage),weeds [3],strong activity
CN1CCCN(C(=O)Nc2cc(-n3c(=O)cc(C(F)(F)F)n(C)c3=O)c(F)cc2Br)C1=O [Example 7],logP,[1],logP = 2.79^a)
same,activity against weeds (degree of damage),weeds [2],strong activity
same,activity against weeds (degree of damage),weeds [3],strong activity
CONC(=O)Nc1cc(-n2c(=O)cc(C(F)(F)F)n(C)c2=O)c(F)cc1Br [Example 9],logP,[1],logP = 2.19^a)
same,activity against weeds (degree of damage),weeds [2],strong activity
same,activity against weeds (degree of damage),weeds [3],strong activity
CCONC(=O)Nc1cc(-n2c(=O)cc(C(F)(F)F)n(C)c2=O)c(F)cc1Cl [Example 27],logP,[1],logP = 2.45^a)
same,activity against weeds (degree of damage),weeds [2],strong activity
same,activity against weeds (degree of damage),weeds [3],strong activity
CN(Cc1ccco1)C(=O)Nc1cc(-n2c(=O)cc(C(F)(F)F)n(C)c2=O)c(F)cc1Cl [Example 44],logP,[1],logP = 2.88^a)
same,activity against weeds (degree of damage),weeds [2],strong activity
same,activity against weeds (degree of damage),weeds [3],strong activity
Cn1c(C(F)(F)F)cc(=O)n(-c2cc(NC(=O)N3CCOC3=O)c(Cl)cc2F)c1=O [Example 25],logP,[1],logP = 2.55^a)
same,activity against weeds (degree of damage),weeds [2],strong activity
same,activity against weeds (degree of damage),weeds [3],strong activity
C=CCONC(=O)Nc1cc(-n2c(=O)cc(C(F)(F)F)n(C)c2=O)c(F)cc1Br [Example 26],logP,[1],logP = 2.67^a)
same,activity against weeds (degree of damage),weeds [2],strong activity
same,activity against weeds (degree of damage),weeds [3],strong activity
